From patent US6878742B2, “Heterocyclic sulfonamide inhibitors of beta amyloid production” (Wyeth, priority 2000, dated 2005)
Values joined by “and” are separate entries in the source; they are usually repeats but may differ in a detail not shown here. Equal entries are not always repeated.

Test system: amyloid precursor protein (APP) proteolysis
Experiment: Repressor Release Assay (RRA)
Assay type: cell-based
Settings: luciferase activity over diluent control
Experimental: The beta amyloid inhibitory activity of many of the compounds of the present invention has been determined using the Repressor Release Assay (RRA). See, Table 23 below. A compound is considered active in RRA if it leads to at least a 1.5 fold increase in luciferase activity at 20 μM and is non-toxic.
The compounds generated as described in Examples 1 through 220 were tested in the RRA in accordance with published techniques [Shuey, D. J., Sheiffele, P., Jones, D., Cockett, M. I., and Quinet, E. M. (1999), “Repressor release: a useful tool for monitoring amyloid precursor protein (APP) proteolysis in mammalian cells”, Society for Neuroscience Abstracts, Vol. 25, 29th Annual Meeting of Society for Neuroscience, Miami Beach, Fla., Oct. 23-28, 1999]. Briefly, this assay is performed as follows.
CHO-K1 cells are cultured in whole DMEM media (DMEM—High Glucose with 10% fetal bovine serum, 1% Non-essential Amino Acids, and 1% Penicillin-Streptomycin) at 37° C. with 5% CO2. Two million cells are plated into 10-cm dishes 24 hrs prior to transfection.
Transient transfections are completed as recommended by Gibco BRL using their Lipofectamine Plus system. First, 6 μg of pRSVO-luc and 6 μg of APP-lacI construct DNA are added to 460 μL Opti-Mem transfection media and incubated with 30 μL Plus reagent for 15 minutes. Then, a lipid mixture of 40 μL Lipofectamine reagent and 460 μL Opti-Mem transfection media is incubated with the DNA-Plus reagent mixture for 15 minutes. During the DNA-lipid incubation, the CHO-K1 cells are washed once and covered in 5.0 mL DMEM media without Penicillin-Streptomycin. The DNA-lipid preparation is then layered onto these cells and incubated at 37° C. overnight.
One and one half million transfected cells per well (100 μL total volume) are plated into sterile, opaque Packard 96-well Cultur-Plates in clear DMEM whole media (DMEM—without phenol red) and incubated at 37° C. with 5% CO2 for 3-5 hours.
Compounds are diluted using two different protocols; one protocol is used for compounds supplied neat (weighed powder in vial) and the other protocol is used for compounds supplied in solution (20 mM in DMSO in 96-well plates). For both protocols, 25 mM Hepes and 25 mM Hepes/1% DMSO are prepared fresh to be used as diluent. The Hepes/DMSO is used as the diluent control on all experimental plates.
The following table depicts the steps for compound dilution (please note that the last step is the addition of compound to cells/media in tissue culture plate):
Because some compounds arrive in 96-well format at 20 mM, the following represents the protocol for their dilution (note that an average molecular weight of these compounds was used to calculate these dilutions and as above, the last step is the addition of compound to cells/media in tissue culture plate):
Once compounds are diluted, they are applied in duplicate on cells in tissue culture plates (prepared above). Cells are incubated with compound at 37° C. with 5% CO2 for an additional 36-48 hours.
Luciferase assays (LucLite reagent, Packard) are performed and are read on a Packard TopCount instrument. Media is removed from each 96-well plate and replaced with 100 μL PBS per well (with Mg^2+ and Ca^2+). An equal volume (100 μL) of the LucLite lysis/substrate buffer is added to each well and the plates are sealed and mixed in the dark on a rotary shaker for 15-30 minutes at room temperature. Luciferase readings are then taken on the TopCount instrument. Measurements are expressed as relative light units (RLU) and are calculated and analyzed in MS Excel as follows.
A compound is considered active in RRA if it leads to at least a 1.5 fold increase in luciferase activity at 20 μM and is non-toxic, as determined by loss of signal (≦0.75 fold increase). Fold increase is the amount of luciferase activity (measured in relative light units) over diluent control. SEM represents the standard error of the mean for fold increase (not shown).

[1] = Conc 20 μg/mL, read-out: APPI Fold Increase
[2] = Conc 10 μg/mL, read-out: APPI Fold Increase

| SMILES | fold induction at 20 µg/mL [1] | further results |
| --- | --- | --- |
| CC[C@@H](c1ccco1)[C@@H](CO)NS(=O)(=O)c1ccc(Cl)s1 [Example 49, 5-chloro-N-[(1S,2R)-2-(2-furyl)-1-(hydroxymethyl)butyl]thiophene-2-sulfonamide] | 6.1 |  |
| CCCCC(O)[C@@H](NS(=O)(=O)c1cccs1)[C@@H](C)CC (stereo partly drawn) [Example 143, N-{(S)-2-hydroxy-1-[(S)-1-methylpropyl]hexyl}thiophene-2-sulfonamide] |  | fold induction at 10 µg/mL [2]: 1.64 |
| C=CCCC(O)(CCC=C)[C@@H](NS(=O)(=O)c1ccc(Cl)s1)[C@@H](C)CC [Example 171, N-{(S)-2-but-3-enyl-2-hydroxy-1-[(S)-1-methylpropyl]hex-5-enyl}-5-chlorothiophene-2-sulfonamide] |  | fold induction at 10 µg/mL [2]: 5.32 |
| O=S(=O)(NC1(CO)CC2CCC1C2)c1ccc(Br)s1 (stereo not drawn) [Example 182, 5-bromo-N-[2-(hydroxymethyl)bicyclo[2.2.1]hept-2-yl]thiophene-2-sulfonamide] | 4.2 |  |
| CCCCC(CO)NS(=O)(=O)c1ccc(Cl)s1 (racemic) [Example 91, 5-chloro-N-[1-(hydroxymethyl)pentyl]thiophene-2-sulfonamide] | 2 |  |
| O=S(=O)(N[C@H](CO)C1CCC(NCc2ccccn2)CC1)c1ccc(Cl)s1 (stereo partly drawn) [Example 219, 5-chloro-N-[(S)-2-hydroxy-1-(4-(2-pyridyl)methylaminocyclohexyl)ethyl]thiophene-2-sulfonamide] | 2.3 |  |
| CCC(CC)[C@@H](CO)NS(=O)(=O)c1ccc(F)s1 [Example 227, N-[(S)-2-Ethyl-1-(hydroxymethyl)butyl]-5-fluorothiophene-2-sulfonamide] | 26.3 |  |
| O=S(=O)(NC1(CO)CC2CCC1C2)c1ccc(Cl)s1 (stereo not drawn) [Example 178, 5-chloro-N-[2-(hydroxymethyl)bicyclo[2.2.1]hept-2-yl]thiophene-2-sulfonamide] | 2.3 |  |
| CC[C@H](C)[C@H](NS(=O)(=O)c1ccc(Cl)s1)C(O)c1ccc(N(C)C)cc1 (stereo partly drawn) [Example 139, 5-chloro-N-{(S,S)-1-[[4-(dimethylamino)phenyl](hydroxy)methyl]-2-methylbutyl}thiophene-2-sulfonamide] |  | fold induction at 10 µg/mL [2]: 3.97 |
| CC[C@H](C)[C@H](NS(=O)(=O)c1ccc(Cl)s1)C(C)O (stereo partly drawn) [Example 119, 5-Chloro-N-[(S,S)-1-(1-hydroxyethyl)-2-methylbutyl]thiophene-2-sulfonamide] |  | fold induction at 0.3 µg/mL (Conc 0.3 μg/mL, read-out: APPI Fold Increase): 1.54; fold induction at 3 µg/mL (Conc 3 μg/mL, read-out: APPI Fold Increase): 2.49; fold induction at 10 µg/mL [2]: 4.1 |
| CC[C@H](C)[C@H](NS(=O)(=O)c1ccc(Cl)s1)C(O)C(F)(F)F (stereo partly drawn) [Example 196, 5-Chloro-N-[(S,S)-2-methyl-1-(2,2,2-trifluoro-1-hydroxyethyl)butyl]thiophene-2-sulfonamide] | 20.7 |  |
| O=S(=O)(N[C@H](CO)C1CCC(O)CC1)c1ccc(Cl)s1 (stereo partly drawn) [Example 199A, 5-Chloro-N-[(S)-2-hydroxy-1-(4-hydroxycyclohexyl)ethyl]thiophene-2-sulfonamide] | 2.4 |  |
| C/C=C(\C)C(O)(/C(C)=C/C)[C@@H](NS(=O)(=O)c1ccc(Cl)s1)[C@@H](C)CC (stereo partly drawn) [Example 170, 5-chloro-N-{(S,E)-2-hydroxy-3-methyl-2-[(E)-1-methylprop-1-enyl]-1-[(S)-1-methylpropyl]pent-3-enyl}thiophene-2-sulfonamide] |  | fold induction at 10 µg/mL [2]: 1.95 |
| CCC[C@H](c1ccc(OC)cc1)[C@@H](CO)NS(=O)(=O)c1ccc(Cl)s1 [Example 36, 5-chloro-N-[(1S,2R)-1-(hydroxymethyl)-2-(4-methoxyphenyl)pentyl]thiophene-2-sulfonamide] | 3.8 |  |
| CCC[C@H](CC)[C@@H](CO)NS(=O)(=O)c1ccc(Cl)s1 [Example 34, 5-chloro-N-[(1S,2S)-2-ethyl-1-(hydroxymethyl)pentyl]thiophene-2-sulfonamide] | 5.9 |  |
| CC[C@H](C)[C@@H](CO)NS(=O)(=O)c1cccs1 [Example 210, N-[(1S,2S)-1-(Hydroxymethyl)-2-methylbutyl]thiophene-2-sulfonamide] |  | APPI Fold Increase (Conc 20 μg/mL): 7.7 fold |

| SMILES | fold induction at 20 µg/mL [1] | further results |
| --- | --- | --- |
| CCCC(CO)NS(=O)(=O)c1ccc(Br)s1 (racemic) [Example 112, 5-bromo-N-[1-(hydroxymethyl)butyl]thiophene-2-sulfonamide] | 1.6 |  |
| CC[C@H](C)[C@@H](/C=N/O)NS(=O)(=O)c1ccc(Cl)s1 [Example 230] | 4.8 |  |
| CC(C)(C)[C@@H](CO)NS(=O)(=O)c1ccc(Br)s1 [Example 113] |  | APPI Fold Increase (Conc 10 μg/mL): 2.86 fold |
| C=CCC(O)C(NS(=O)(=O)c1ccc(Cl)s1)C(C)CC (mixture of isomers) [Example 128] |  | APPI Fold Increase (Conc 1 μg/mL): 1.52 fold; APPI Fold Increase (Conc 3 μg/mL): 2.48 fold; APPI Fold Increase (Conc 10 μg/mL): 5.62 fold and 3.86 fold; APPI Fold Increase (Conc 20 μg/mL): 5.9 fold |
| CCC(CC)[C@@H](CO)NS(=O)(=O)c1cccs1 [Example 226, N-[(S)-2-Ethyl-1-(hydroxymethyl)butyl]thiophene-2-sulfonamide] | 7.6 |  |
| O=S(=O)(N[C@H](CO)c1ccccc1)c1ccc(Cl)s1 [Example 89, 5-Chloro-N-[(S)-2-hydroxy-1-phenylethyl]thiophene-2-sulfonamide] | 2.3 |  |
| CC[C@H](C)[C@@H](CO)NS(=O)(=O)c1ccc(F)s1 [Example 208, 5-Fluoro-N-[(1S,2S)-1-(hydroxymethyl)-2-methylbutyl]-2-thiophenesulfonamide] | 16.5 |  |
| O=S(=O)(N[C@H](CO)C1CCC(NCc2ccncc2)CC1)c1ccc(Cl)s1 (stereo partly drawn) [Example 218, 5-chloro-N-[(S)-2-hydroxy-1-(4-(4-pyridyl)methylaminocyclohexyl)ethyl]thiophene-2-sulfonamide] | 2.8 |  |
| O=S(=O)(N[C@H](CO)CC1CCCCC1)c1ccc(Br)s1 [Example 110] |  | APPI Fold Increase (Conc 10 μg/mL): 1.71 fold; APPI Fold Increase (Conc 20 μg/mL): 2.9 fold and 2.3 fold and 3.6 fold |
| CC[C@H](C)[C@H](NS(=O)(=O)c1cccs1)C(O)c1ccc(OC)cc1 (stereo partly drawn) [Example 149, N-{(S,S)-1-[hydroxy(4-methoxyphenyl)methyl]-2-methylbutyl}thiophene-2-sulfonamide] |  | fold induction at 10 µg/mL [2]: 1.62 |
| CCC[C@H](CC(C)C)[C@@H](CO)NS(=O)(=O)c1ccc(Br)s1 [Example 61, 5-bromo-N-[(1S,2R)-1-(hydroxymethyl)-4-methyl-2-propylpentyl]thiophene-2-sulfonamide] | 5.7 |  |
| O=S(=O)(NC(CO)C1CCCCC1)c1ccc(Br)s1 (stereo not drawn) [Example 13] |  | APPI Fold Increase (Conc 1 μg/mL): 2.17 fold; APPI Fold Increase (Conc 3 μg/mL): 4.02 fold; APPI Fold Increase (Conc 10 μg/mL): 3.94 fold |
| CC[C@H](C)[C@@H](/C=N\O)NS(=O)(=O)c1ccc(Cl)s1 [Example 229] | 6.3 |  |
| CC[C@@H](C(C)C)[C@@H](CO)NS(=O)(=O)c1ccc(Br)s1 [Example 74, 5-bromo-N-[(1S,2S)-2-ethyl-1-(hydroxymethyl)-3-methylbutyl]thiophene-2-sulfonamide] | 5.1 |  |
| CC[C@H](C)[C@@H](CO)NS(=O)(=O)c1ccc(Cl)o1 [Example 204, 5-Chloro-N-[(1S,2S)-1-(hydroxymethyl)-2-methylbutyl]-2-furansulfonamide] | 2.8 |  |
